In patent US20060069132A1, “Azolecarboxamide herbicides” (priority 2004, published 2006):

Experiments:
[1] = system: large crabgrass; experiment: Test A pre-/postemergence herbicide test; type: in vivo, Digitaria sanguinalis
How it was run: (§1)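 Visual injury scores on a 0–100 scale (100 = complete control) taken about ten days post-treatment in greenhouse against untreated controls; dash means no result. Treatments: preemergence soil spray and postemergence spray to runoff on one- to two-leaf plants 2 to 10 cm tall, surfactant-containing formulation.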

[2] = system: rice; experiment: Test B pre-/postemergence herbicide test; type: in vivo, Oryza sativa; conditions: preemergence
How it was run: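 Species tested were Echinochloa crus-galli, Ipomoea coccinea, Xanthium strumarium and Oryza sativa, treated both before emergence and at the 1- to 4-leaf stage; rice and barnyardgrass were also tested under flooding at 2 leaves. Greenhouse incubation lasted 13–15 days before visual 0–100 scoring.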

[3] = system: pigweed; experiment: Test B pre-/postemergence herbicide test; type: in vivo, Amaranthus retroflexus; conditions: for Pigweed plant response rating: postemergence
How it was run: (§2)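 Greenhouse pot assay with simultaneous preemergence (treated seed) and postemergence (2–18 cm seedlings) applications of surfactant-containing, non-phytotoxic solvent formulations. Response scored visually 13–15 days later on a 0–100 scale, 100 meaning complete control.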

[4] = system: large crabgrass; experiment: Test B pre-/postemergence herbicide test; type: in vivo, Digitaria sanguinalis; conditions: for Crabgrass, Large plant response rating: postemergence
How it was run: as §2

[5] = system: small flower umbrella sedge; experiment: Test B flooded paddy test; type: in vivo, Cyperus difformis; conditions: 1000 g ai/ha, scale 0 to 100 (0 no effect, 100 complete control)
How it was run: (§3)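 Visual control ratings, 0–100 versus untreated controls, taken after 13 to 15 days in the greenhouse. Blackgrass received a postemergence spray at the 1- to 4-leaf stage (2–18 cm); ducksalad, umbrella sedge and barnyardgrass were flooded-paddy treated at 2 leaves.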

[6] = system: morningglory; experiment: Test A pre-/postemergence herbicide test; type: in vivo, Ipomoea spp.
How it was run: as §1

[7] = system: rice; experiment: Test B flooded paddy test; type: in vivo, Oryza sativa; conditions: 1000 g ai/ha, scale 0 to 100 (0 no effect, 100 complete control)
How it was run: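 Greenhouse test; postemergence application to plants at 1–4 leaves (2–18 cm); paddy species at 2 leaves; evaluated visually vs controls at 13–15 days; scale 0–100 (100 = complete control).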

[8] = system: redroot pigweed; experiment: Test A pre-/postemergence herbicide test; type: in vivo, Amaranthus retroflexus
How it was run: as §1

[9] = system: morningglory; experiment: Test B pre-/postemergence herbicide test; type: in vivo, Ipomoea coccinea; conditions: for Morningglory plant response rating: postemergence
How it was run: (§4)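 Response was scored visually 13 to 15 days after treatment against untreated greenhouse controls, 0 meaning no effect and 100 complete control. Formulations (solvent mixture plus surfactant) went onto soil after planting, onto foliage of 1- to 4-leaf plants, and onto 2-leaf plants in a flooded paddy set including rice and barnyardgrass.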

[10] = system: giant foxtail; experiment: Test B pre-/postemergence herbicide test; type: in vivo, Setaria faberi; conditions: for Foxtail, Giant plant response rating: postemergence
How it was run: as §2

[11] = system: barnyardgrass; experiment: Test B flooded paddy test; type: in vivo, Echinochloa crus-galli; conditions: 1000 g ai/ha, scale 0 to 100 (0 no effect, 100 complete control)
How it was run: as §3

[12] = system: blackgrass; experiment: Test B postemergence herbicide test; type: in vivo, Alopecurus myosuroides; conditions: postemergence
How it was run: as §3

[13] = system: cocklebur; experiment: Test B pre-/postemergence herbicide test; type: in vivo, Xanthium strumarium; conditions: for Cocklebur plant response rating: postemergence
How it was run: as §4

[14] = system: giant foxtail; experiment: Test A pre-/postemergence herbicide test; type: in vivo, Setaria faberi
How it was run: as §1

[15] = system: Surinam grass; experiment: Test B pre-/postemergence herbicide test; type: in vivo, Urochloa decumbens; conditions: for Surinam Grass plant response rating: postemergence
How it was run: as §2

[16] = system: wild oat; experiment: Test B postemergence herbicide test; type: in vivo, Avena fatua; conditions: postemergence
How it was run: (§5)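 After treating 2-leaf paddy plants or 2–18 cm postemergence plants (1 to 4 leaves) with formulated chemical, researchers kept them in a greenhouse for 13–15 days. Effects were judged visually versus controls: 0 indicates none, 100 total control.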

[17] = system: velvetleaf; experiment: Test B pre-/postemergence herbicide test; type: in vivo, Abutilon theophrasti; conditions: for Velvetleaf plant response rating: postemergence
How it was run: as §2

[18] = system: barnyardgrass; experiment: Test B pre-/postemergence herbicide test; type: in vivo, Echinochloa crus-galli; conditions: for Barnyardgrass plant response rating: postemergence
How it was run: as §4

[19] = system: corn; experiment: Test B pre-/postemergence herbicide test; type: in vivo, Zea mays; conditions: for Corn plant response rating: postemergence
How it was run: as §2

[20] = system: barnyardgrass; experiment: Test A pre-/postemergence herbicide test; type: in vivo, Echinochloa crus-galli
How it was run: as §1

[21] = system: lambsquarters; experiment: Test B pre-/postemergence herbicide test; type: in vivo, Chenopodium album; conditions: for Lambsquarters plant response rating: postemergence
How it was run: as §2

[22] = system: ducksalad; experiment: Test B flooded paddy test; type: in vivo, Heteranthera limosa; conditions: 1000 g ai/ha, scale 0 to 100 (0 no effect, 100 complete control)
How it was run: as §3

[23] = system: wheat; experiment: Test B postemergence herbicide test; type: in vivo, Triticum aestivum; parameters: key to Wheat plant response rating: 0 = no effect, 100 = complete control; conditions: postemergence
How it was run: as §5

[24] = system: velvetleaf; experiment: Test A pre-/postemergence herbicide test; type: in vivo, Abutilon theophrasti
How it was run: as §1

[25] = Postemergence, 500 g ai/ha, 0 to 100 scale, 0 no effect, 100 complete control
[26] = Postemergence, 2000 g ai/ha, 0 to 100 scale, 0 no effect, 100 complete control
[27] = Preemergence, 2000 g ai/ha, visual rating, 0 to 100 scale (0 no effect, 100 complete control)
[28] = preemergence, 500 g ai/ha, visual injury, 0 to 100 scale (0 no effect, 100 complete control)
[29] = 125 g ai/ha, 0 is no effect, 100 is complete control, preemergence
[30] = 125 g ai/ha, visual rating, scale 0 (no effect) to 100 (complete control)
[31] = 500 g ai/ha, visual rating, 0 = no effect, 100 = complete control, preemergence
[32] = 500 g ai/ha, scale 0 to 100, 0 is no effect, 100 is complete control

SMILES: Cn1nc(C(C)(C)C)cc1C(=O)Nc1cccc(C(=O)NC2CC2)n1 [Compound 315]
- Crabgrass, Large plant response rating [1, 25]: 20
- Plant response rating, Crabgrass, Large [1, 26]: 20
- Crabgrass, Large plant response rating [1, 27]: 15
- Crabgrass, Large plant response rating [1, 28]: 5
- Plant response rating (0 to 100 scale), Rice ([2]; 125 g ai/ha, 0 is no effect, 100 is complete control): 0
- Plant response rating, Rice ([2]; 500 g ai/ha, visual rating, 0 = no effect, 100 = complete control): 0
- Plant response rating (0 to 100 scale), Pigweed [3, 29]: 20
- Pigweed plant response rating [3, 30]: 10
- Plant response rating, Pigweed [3, 31]: 100
- Pigweed plant response rating [3, 32]: 50
- Plant response rating (0 to 100 scale), Crabgrass, Large [4, 29]: 0
- Crabgrass, Large plant response rating [4, 30]: 0
- Plant response rating, Crabgrass, Large [4, 31]: 20
- Crabgrass, Large plant response rating [4, 32]: 10
- Sedge, Umbrella plant response rating [5]: 0
- Morningglory plant response rating [6, 25]: 0
- Plant response rating, Morningglory [6, 26]: 0
- Morningglory plant response rating [6, 27]: 10
- Morningglory plant response rating [6, 28]: 5
- Rice plant response rating [7]: 0
- Pigweed plant response rating [8, 25]: 10
- Plant response rating, Pigweed [8, 26]: 20
- Pigweed plant response rating [8, 27]: 45
- Pigweed plant response rating [8, 28]: 15
- Plant response rating (0 to 100 scale), Morningglory [9, 29]: 0
- Morningglory plant response rating [9, 30]: 0
- Plant response rating, Morningglory [9, 31]: 0
- Morningglory plant response rating [9, 32]: 20
- Plant response rating (0 to 100 scale), Foxtail, Giant [10, 29]: 0
- Foxtail, Giant plant response rating [10, 30]: 0
- Plant response rating, Foxtail, Giant [10, 31]: 20
- Foxtail, Giant plant response rating [10, 32]: 10
- Barnyardgrass plant response rating [11]: 0
- Blackgrass plant response rating [12, 30]: 0
- Blackgrass plant response rating [12, 32]: 0
- Plant response rating (0 to 100 scale), Cocklebur [13, 29]: 0
- Cocklebur plant response rating [13, 30]: 20
- Plant response rating, Cocklebur [13, 31]: 0
- Cocklebur plant response rating [13, 32]: 20
- Foxtail, Giant plant response rating [14, 25]: 0
- Plant response rating, Foxtail, Giant [14, 26]: 0
- Foxtail, Giant plant response rating [14, 27]: 10
- Foxtail, Giant plant response rating [14, 28]: 0
- Plant response rating (0 to 100 scale), Surinam Grass [15, 29]: 0
- Surinam Grass plant response rating [15, 30]: 20
- Plant response rating, Surinam Grass [15, 31]: 10
- Surinam Grass plant response rating [15, 32]: 20
- Oat, Wild plant response rating [16, 30]: 0
- Oat, Wild plant response rating [16, 32]: 10
- Plant response rating (0 to 100 scale), Velvetleaf [17, 29]: 10
- Velvetleaf plant response rating [17, 30]: 20
- Plant response rating, Velvetleaf [17, 31]: 20
- Velvetleaf plant response rating [17, 32]: 20
- Plant response rating (0 to 100 scale), Barnyardgrass [18, 29]: 0
- Barnyardgrass plant response rating [18, 30]: 10
- Plant response rating, Barnyardgrass [18, 31]: 20
- Barnyardgrass plant response rating [18, 32]: 20
- Plant response rating (0 to 100 scale), Corn [19, 29]: 0
- Corn plant response rating [19, 30]: 10
- Plant response rating, Corn [19, 31]: 0
- Corn plant response rating [19, 32]: 20
- Barnyardgrass plant response rating [20, 25]: 20
- Plant response rating, Barnyardgrass [20, 26]: 20
- Barnyardgrass plant response rating [20, 27]: 5
- Barnyardgrass plant response rating [20, 28]: 5
- Plant response rating (0 to 100 scale), Lambsquarters [21, 29]: 0
- Lambsquarters plant response rating [21, 30]: 50
- Plant response rating, Lambsquarters [21, 31]: 80
- Lambsquarters plant response rating [21, 32]: 60
- Ducksalad plant response rating [22]: 0
- Wheat plant response rating [23, 30]: 0
- Wheat plant response rating [23, 32]: 0
- Velvetleaf plant response rating [24, 25]: 0
- Plant response rating, Velvetleaf [24, 26]: 0
- Velvetleaf plant response rating [24, 27]: 30
- Velvetleaf plant response rating [24, 28]: 10
